The target in one assay is T1, Acyp1 (Mus musculus, UniProt P56376).
T1 construct: We treated NUP-MDSC cell lysate with compound 2; endogenous in cells; host or cells: mouse NUP-MDSC (lysate)
T1 sequence (P56376 1-99): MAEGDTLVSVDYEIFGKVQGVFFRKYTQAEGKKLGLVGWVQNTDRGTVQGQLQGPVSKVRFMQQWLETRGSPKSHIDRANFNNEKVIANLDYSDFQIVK
Put plainly: Solvent-induced protein precipitation profiling. It is filed as binding. As to conditions: 7.8 μM and 26 μM; relative to compound 3 at 10 μM. Here is the method: (§1) NUP-MDSCs were differentiated as described above, washed twice with PBS, resuspended in lysis buffer (PBS, 0.4% IGEPAL CA-630, 1× Halt Protease-Inhibitor Cocktail (Thermo Fisher Scientific)), and subjected to three freeze-thaw cycles. The lysate was cleared by centrifugation for 30 min at 18,000g and 4 °C. The soluble fraction was diluted to 4 mg/ml and allowed to warm up to room temperature. Equal volumes of lysate were treated in triplicates with 100 x compound stock solutions (in DMSO) or DMSO for 15 min at room temperature (final concentrations: cmpd 2: 7.8 μM (3xEC50) and 26 μM (10xEC50), cmpd 3: 10 μM and 26 μM). […]
(§2) Peptides were analyzed via LC-MS/MS on a Vanquish Neo UHPLC coupled to an Orbitrap Eclipse Tribrid mass spectrometer (Thermo Fisher Scientific). […] Samples were measured, employing a MS3 method with real-time search. […] To obtain quantitative information on TMT reporter ions, each peptide precursor was fragmented again as for MS2 analysis followed by synchronous selection of the up to 10 most intense peptide fragments in the iontrap ([37]) and further fragmentation via HCD using an NCE of 55%. […] The MS3 scan was recorded in the OT at 30,000 resolution (scan range 110–500 m/z, isolation window of 0.7 m/z, AGC of 2e4 charges, maxIT of 120 ms). […]

The target in a further assay is T2, Cd74 (Mus musculus, UniProt P04441).
T2 construct: We treated NUP-MDSC cell lysate with compound 2; endogenous in cells; host or cells: mouse NUP-MDSC (lysate)
T2 sequence (P04441 1-279): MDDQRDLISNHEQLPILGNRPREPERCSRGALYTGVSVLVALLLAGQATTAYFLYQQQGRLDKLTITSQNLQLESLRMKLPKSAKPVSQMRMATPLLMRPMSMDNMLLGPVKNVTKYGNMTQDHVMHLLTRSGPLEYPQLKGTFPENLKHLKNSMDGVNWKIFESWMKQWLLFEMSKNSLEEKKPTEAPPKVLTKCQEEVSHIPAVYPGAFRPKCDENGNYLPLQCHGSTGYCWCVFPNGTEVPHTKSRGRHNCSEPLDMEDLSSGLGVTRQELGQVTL
Put plainly: Solvent-induced protein precipitation profiling. It counts as binding. As to conditions: 7.8 μM and 26 μM; relative to compound 3 at 10 μM. Here is the method:
as §1, §2

As to `CCOC(=O)c1nnn(-c2nn3nnnc3c3ccccc23)c1C` [compound 2], at Acyp1, the “stabilization against solvent-induced aggregation of Acyp1” value is “dose-dependent stabilization”. Further, the “stabilization against solvent-induced aggregation of Cd74” value on Cd74 is on record as “dose-dependent stabilization”.

(Values after article PMC10518717, “High-Throughput Screening and Proteomic Characterization of Compounds Targeting Myeloid-Derived Suppressor Cells” (Molecular & Cellular Proteomics : MCP, 2023).)
